Results reported in BindingDB's records for patent US10780095 (THE REGENTS OF THE UNIVERSITY OF CALIFORNIA, 2020).

Target: Prokineticin receptor 1 (Human, UniProt Q8TCW9)
Experiment: Aequorin-Based Luminescent Assay
Method: An aequorin-based luminescent assay for calcium mobilization was used to measure mobilization of intracellular Ca2+ (Bullock et al., Mol Pharmacol 65, 582-588, 2004). Chinese hamster ovary (CHO) cells stably expressing photoprotein aequorin and recombinant PKR1 or PKR2 were tested by this method. Briefly, the cells were charged in Opti-MEM (Invitrogen) containing 8 μM of coelenterazine cp at 37° C. for 2 hours. Cells were detached by brief trypsinization and maintained in Hank's Balanced Salt Solution (HBSS) plus 10 mM HEPES (pH7.5) and 0.1% BSA at about 5×10^5 cells/ml. Luminescence measurements were made using a Berthold luminometer.All compounds were diluted in HBSS plus 10 mM HEPES (pH7.5) and 0.1% BSA. To test the agonist activity, 100 μl of cells were injected into the tubes with 20 μl of compounds. For antagonist assays, 80 μl cells were incubated in the tubes with 20 μl different concentrations of antagonists at room temperature for 20 minutes, and then 100 μl of recombinant PK2 were injected. The IC50 obtained from the assays were then converted to Ki values using the formula: IC50/(1+[PK2]/EC50PK2).

Prokineticin receptor 1, sequence (Q8TCW9 whole entry): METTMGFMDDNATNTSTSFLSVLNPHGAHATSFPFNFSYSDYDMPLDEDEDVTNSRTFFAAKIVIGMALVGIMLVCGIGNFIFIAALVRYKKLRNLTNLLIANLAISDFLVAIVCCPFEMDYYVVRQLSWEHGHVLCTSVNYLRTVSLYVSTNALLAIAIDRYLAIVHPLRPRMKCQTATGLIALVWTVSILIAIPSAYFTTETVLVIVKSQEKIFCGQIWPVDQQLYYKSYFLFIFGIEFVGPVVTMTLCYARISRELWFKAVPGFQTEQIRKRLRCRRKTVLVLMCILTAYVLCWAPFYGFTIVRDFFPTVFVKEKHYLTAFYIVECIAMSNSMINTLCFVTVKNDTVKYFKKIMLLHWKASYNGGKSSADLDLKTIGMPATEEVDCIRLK

Row | Structure (SMILES) | Ki
1 | COc1cc(F)cc(CN2CCC(C(=O)N(Cc3cc(Cl)c4c(c3)OCCCO4)CC(C)C)C2)c1 (configuration not stated) [US10780095, Structure TABLE 1.16] | 373 nM
2 | COc1cc(F)cc(CN2CCC(C(=O)N(Cc3cc(Cl)c4c(c3)OCCCO4)CC(C)C)C2)c1 (configuration not stated) [US10780095, Structure TABLE 1.18] | 41.5 nM
